According to publication PMC3620930 (Molecular oral microbiology, 2012):

What was measured:
Assay in all cases: inhibition of amidolytic activity
Format in all cases: biochemical
HRgpA = HRgpA (Porphyromonas gingivalis, UniProt P28784)
RgpB = RgpB (Porphyromonas gingivalis, UniProt P95493)
Lys-gingipain = Lys-gingipain (Porphyromonas gingivalis, UniProt P72197)

| SMILES | Ki (HRgpA) [µM] | Ki (RgpB) [µM] | Ki (Lys-gingipain) [µM] |
| --- | --- | --- | --- |
| N=C(N)c1ccccc1 [benzamidine] | 536 | 277 | > 1000 |
| N=C(N)c1ccc(CC2CCCC(Cc3ccc(C(=N)N)cc3)C2=O)cc1 (stereo not drawn) [2,6-bis-(4-amidinobenzyl)-cyclohexanone] | 2.9 | 0.51 | > 1000 |
| N=C(N)c1ccc(OCCCCCOc2ccc(C(=N)N)cc2)cc1 [pentamidine] | 107 | 40.3 | > 1000 |
